Assay results reported in patent US5126258A (priority 1988, dated 1992).
Values after ≈ are worked out from the molar mass of the structure shown. Like-named read-outs stand apart in the source and are kept apart here.

What was measured:
[1] = leaving group alcohol; source not stated; cited from earlier work
[2] = test system: monoclonal antibody P3 6D4; assay: Ester hydrolysis by monoclonal antibody P3 6D4, HPLC; assay type: biochemical, mouse; details: for t1/2 Antibody (P3 6D4): 5 micromolar substrate, 0.1 micromolar antibody, 50 mM phosphate pH 8.0, 25 C
Protocol: FIG. 3 illustrates the rate of hydrolysis of a carboxylic ester (Compound 7) determined by HPLC under the conditions described in Table 1 (50 mM phosphate buffer at pH 8.0 and 23 degrees C). ( ) Uncatalyzed (background)rate of hydrolysis. (.quadrature.) Effect of 0.5 micromolar non-specific monoclonal IgG. ( ) 0.1 Micromolar anti-Compound 4 monoclonal antibody from hybridoma P3 6D4. The superimposed curve represents a theoretical exponential decay which fits the data points.
(§1) In particular, an exemplary monoclonal receptor was produced by the standard hybridoma technology of Kohler et al., Nature, 256, 495 (1975). Specifically, female 129G1X^+ mice were immunized by intraperitoneal injection with an inoculum of 100 micrograms of conjugate (e.g., Compound 4i bound to KLH) in 300 microliters of a 1:1 mixture of phosphate buffered saline (PBS) pH 7.4 and complete Freund's adjuvant. Two weeks later, the mice were again injected in a like manner with 50 micrograms of the foregoing conjugate in 300 microliters of a 1:1 mixture of PBS (pH 7.4) and 10 mg/ml alum. After an additional eight weeks, the mice were immunized intravenously with 50 micrograms of the conjugate in 200 microliters of PBS (pH 7.4). The spleens were removed from the mice 4 days later, and the spleen cells were fused to myeloma cells.
(§2) The lack of spectroscopic distinction between such esters and their hydrolysis products recommended a chromatographic analysis of the process. Referring to FIG. 3, a mixture of Compound 7 (5 uM) and the monoclonal antibody from hybridoma P3 6D4 (0.1 uM) in phosphate buffer (50 mM, pH 8.0) was analyzed over time by high performance liquid chromatography (HPLC). The accelerated hydrolysis of the ester was apparent from the decrease of its peak and the concurrent increase in two new peaks that correspond with the expected products. Under these conditions, the ester is completely consumed in 60-80 minutes during which time the background rate accounts for about 12 to 16 percent hydrolysis. The chromatographic profile is the same as that produced by treatment with hog liver esterase.
(§3) *Hydrolysis of carboxylic esters by monoclonal antibody (from hybridoma P
(§4) 6D4) and by hog liver esterase (Sigma Chemical Co., St. Louis, MO, EC
(§5) 3.1.1.1) determined by HPLC on an analytical RPC18 column (Vydac 218TP54)
(§6) with isocratic elution [acetonitrile: water plus 0.1 percent
(§7) trifluoroacetic acid; (35:65)] at a flow rate of 1.0 ml/min and the
(§8) detector set at 245 nm. The initial substrate concentration was 5
(§9) micromolar and that the internal standard (acetophenone) was 10 microm
(§10) olar in 50 mM phosphate buffer at pH 8.0. The retention times (minutes)
(§11) were as follows: acetophenone, 5.0; Compound 7, 8.3; Compound 8, 6.7;
(§12) Compound 9, 4.1; Compound 10, 11.1 (40 percent acetonitrile elution);
(§13) Compound 11, 8.2. The antibody concentration was 15 micrograms/ml (0.1
(§14) micromolar) and that of esterase was 5.5 micrograms/ml. The reaction
(§15) mixtures were kept at 25 degrees C. and aliquots were analyzed at
(§16) intervals of 2 to 20 minutes. Three or more determinations were used to
(§17) plot a curve from which the halflife of the reaction is estimated (see

[3] = test system: hog liver esterase; assay type: biochemical; details: pig, 5 µM, pH 8
Protocol: as §2, §3, §4, §5, §6, §7, §8, §9, §10, §11, §12, §13, §14, §15, §16, §17

[4] = test system: monoclonal antibody P3 6D4; assay: Kinetics and inhibition of catalytic ester hydrolysis by monoclonal antibody P3 6D4, spectrophotometric at 245 nm; assay type: biochemical, mouse; details: for Km / Vmax / kcat: 50 mM phosphate pH 8.0, 25 C; for Km / Vmax: 100 nM IgG; for Km: figure = Km × 10^6; for Vmax: figure = Vmax × 10^9; for kcat: printed figure = kcat × 10^2; for kcat/kuncat / Ki: pH 8.0; for acceleration above the background rate: pH 8.0, corrected for background hydrolysis rate; for Ki: figure = Ki × 10^7, read-out: Ki
Protocol: FIG. 4 illustrates a Lineweaver-Burk plot for the hydrolysis of Compound 7 by anti-Compound 4 monoclonal antibody from hybridoma P3 6D4. Velocities were determined spectrophotometrically by measuring initial rates during the first linear portion of the reaction as described with reference to Table 2. The substrate concentrations were corrected for amounts consumed during initial equilibration. ( ) No inhibitor present. ( ) Inhibited by 50 nM phosphonate (Compound 3). ( ) Inhibited by 100 nM phosphonate (Compound 3).
as §1
Reaction kinetics were measured spectrophotometrically by following the absorption change at 245 nanometers. […] Kinetic parameters obtained with these substrates are shown in Table 2 along with the inhibition constants obtained with phosphonate (Compound 3). Under these conditions, the acceleration above the background rate is about 960-fold for Compound 7 and about 200-fold for Compound 8 (corrected for the background hydrolysis rate).
*The kinetic parameters shown in Table 2 are for the hydrolysis of esters
(Compounds 7 and 8) by monoclonal antibody P3 6D4. A PerkinElmer lambda 4
spectrophotometer, equipped with thermostatted cell holder, was used to
measure absorption changes at 245 nm. Cells containing the substrate at
concentrations of 0.5 to 50 micromolar in phosphate buffer (50 mM, pH 8.0
were preequilibrated at 25 degrees C. The concentration of active IgG in
stock solution was found by reacting with the coumarin ester (Compound 5)
and measuring the yield of hydroxycoumarin by fluorescence. The kinetic
run was initiated by addition of an aliquot of the antibody stock solutio
(in 50 mM phosphate buffer, pH 8.0) calculated to give 100 nM IgG. The
mixture was allowed to equilibrate for 2 to 3 minutes and the rate was
then measured during the subsequent 10 minutes. The absorption change for
complete hydrolysis was determined by treatment with esterase. Kinetic
parameters were obtained from L ineweaverBurk plots (see FIG. 4).
Inhibition constants were determined from a plot of the slopes with at
least four inhibitor concentrations of Compound 3. The data were analyzed

[5] = test system: monoclonal receptor P3 6D4; assay: Stoichiometric transacylation reaction of monoclonal receptor P3 6D4 with coumarin ester Compound 5 (fluorescence) and its inhibition/inactivation; assay type: biochemical, mouse
In short: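 Antibody P3 6D4 (100 nM final) reacted at 23 °C with coumarin ester 5 in Tris-HCl or phosphate buffer (50 mM, pH 4–9), followed by fluorescence (ex 355/em 455 nm). Initial rates corrected for spontaneous hydrolysis; kinetic parameters from hyperbolic and double-reciprocal fits, Ki from Lineweaver-Burk with ≥5 inhibitor concentrations.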

[6] = Solubility; assay type: physicochemical; details: aqueous buffer
[7] = Spontaneous (uncatalyzed, background) hydrolysis; assay type: physicochemical; details: spectrophotometric at 245 nm, initial rates at five ester concentrations; figure = k × 10^5
In short: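 Background (uncatalyzed) hydrolysis of ester substrates measured in 50 mM phosphate buffer, pH 8.0, without antibody, as percentage of reactant consumed over the stated period. Quantified by C18 HPLC (acetonitrile/water with 0.1% trichloroacetic acid); Compounds 5 and 20 followed by fluorescence (ex 355 nm, em 455 nm).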

[8] = Metal chelate formation constants, potentiometric titration; assay type: physicochemical; details: titrimetric analysis, estimated; read-out: formation constants of 1:1 chelates with divalent metal ions
Source text: Such a possibility was investigated using a dipicolinic acid halide to derivatize the ortho aminomethyl group of a phenolic structure (see Compounds 3 and 4 of FIG. 2). The dealkylation of the phosphonyl and acyl esters of this adduct exposes the potential ligands for the formation of a metal chelate. The intrinsic stability of complexes of this ligand, however, determined with divalent transition metals such as cobalt, zinc and copper, are probably too low to expect these chelates to maintain their integrity in the immunization process. In fact, the formation constants of 1:1 chelates of Compound 3 with the divalent metal ions are in the range of 10^4 -10^5 M^-1 as estimated by titrimetric analysis.
Determination of pKa and stability constants K:
All determinations of pKa and stability constants (K) are performed according to the method of Martell. This method consisted of potentiometric titration of the particular compound (at a concentration of about 1.4 mM) in the absence of and in the presence of the metal ion being investigated. The ionic strength was maintained constant using 0.1M NaClO4 as a supporting electrolyte. All measurements were carried out under nitrogen at 25 degrees C plus or minus 0.01 degrees C.

t1/2 Antibody (P3 6D4) [2] [min]	t1/2 Esterase [3] [min]	Km [4] [nM]	Compound	Vmax [4] [µM/min]	kcat [4] [s⁻¹]	kcat/kuncat [4]	acceleration above the background rate [4]	other results
			Oc1cccc2ccccc12 [alpha-naphthol]					pKa [1]: about 9.3
60	52	620	O=C(O)CCC(=O)Nc1ccc(OC(=O)Cc2ccc(NC(=O)C(F)(F)F)cc2)cc1 [Compound 8]	0.06	0.008	210	about 200 fold	accelerated hydrolysis by P3 6D4 (substrate acceptance) ([2]; pH 8.0): somewhat slower rate; inactivation of receptor [5]: loss of activity; solubility ([6]; 50 mm phosphate buffer, phosphate buffer 50 mM, pH 8.0, read-out: soluble up to concentration): ≥ 100 µM
16	4	1900	CC(=O)Nc1ccc(OC(=O)Cc2ccc(NC(=O)C(F)(F)F)cc2)cc1 [Compound 7]	0.132	0.027	960	about 960 fold	time to complete consumption of ester ([2]; 5 uM Compound 7, 0.1 uM antibody P3 6D4, 50 mM phosphate pH 8.0): 60 to 80 min; kuncat [7]: 280000 s⁻¹; turn over of receptor with substrate ([4]; without noticeable inactivation): several hundred fold; solubility ([6]; read-out: concentration above which solutions become slightly turbid): 15 µM (≈ 5.7 µg/mL)
			CCOP(=O)(Cc1ccc(NC(=O)C(F)(F)F)cc1)Oc1ccc(NC(C)=O)cc1CNC(=O)c1cccc(C(=O)OC)n1 (stereo not shown) [Compound 3]					Ki ([4]; inhibitor Compound 3, substrate Compound 7 (table line 7)): 160 nM; Ki ([4]; inhibitor Compound 3, substrate Compound 8 (table line 8)): 65 nM; Kd [8]: 10 to 100 µM
